Usually Emax stands for the size of the effect at its maximum, as opposed to the concentration needed. As usually defined, the share remaining is the share of the starting amount still present when the sample was taken.

Data on five molecules can be found in US20240270809A1, “ORAL GLP RECEPTOR AGONISTS” (priority 2020, published 2024).

One data set has as its target T1, human GLP1 receptor (Homo sapiens, UniProt P43220).
T1 construct: expressed in transfected cells; host or cells: HEK cells, BacMam virus transduction
Kind of data set: cAMP accumulation assay, functional agonism of human GLP1 receptor. The format is cell-based. The conditions noted are these: HEK cells infected with human GLP1 receptor BacMam virus, HTRF cAMP; for Emax: HEK293, read-out: Human GLP-1R agonist cAMP Emax; for EC50: read-out: Human GLP-1R agonist cAMP pEC50 (converted). In short, it runs like this:
(§1)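 cAMP by HTRF in BacMam-transduced HEK cells (24 h infection, frozen stocks); 0.5 mM IBMX in HBSS, 45 min, 37° C.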

Data set [1] is described as follows: Stability of peptides in Fasted-State Simulated Intestinal Fluid (FaSSIF). The format is in vitro ADME. Conditions: FaSSIF with 10 mg/ml pancreatin; FaSSIF pH 6.5 with 10 mg/ml pancreatin, 37° C., t = 15 mins.
Procedure: Stability of peptides was tested in Fasted-State Simulated Intestinal Fluid (FaSSIF) prepared according to manufacturer's protocol (Biorelevant, art.no. FFF01, pH 6.5). […] FaSSIF was pre-incubated for 15 min at 37° C. and spiked with test and reference item working solutions. Experiments were conducted in duplicate in a non-serial manner. The total incubation volume per replicate was 150 μl. Sampling time points for test items were 0, 0.5, 2, 5, 10, 15 and 30 min. All samples and calibration standards (prepared in FaSSIF) were precipitated by addition of 300 μl precipitant (ACN / 2% acetic acid / 0.2% HFBA, (precipitation reagent, PR)) containing internal standard (ISTD) to 150 μl sample. After incubation for 1 h at room temperature all samples were centrifuged for 10 min at 2,200×g (room temperature).
A further data set deals with T2, human GLP2 receptor (Homo sapiens, UniProt O95838).
T2 construct: expressed in transfected cells; host or cells: HEK cells, BacMam virus transduction
T2 sequence (O95838 1-553): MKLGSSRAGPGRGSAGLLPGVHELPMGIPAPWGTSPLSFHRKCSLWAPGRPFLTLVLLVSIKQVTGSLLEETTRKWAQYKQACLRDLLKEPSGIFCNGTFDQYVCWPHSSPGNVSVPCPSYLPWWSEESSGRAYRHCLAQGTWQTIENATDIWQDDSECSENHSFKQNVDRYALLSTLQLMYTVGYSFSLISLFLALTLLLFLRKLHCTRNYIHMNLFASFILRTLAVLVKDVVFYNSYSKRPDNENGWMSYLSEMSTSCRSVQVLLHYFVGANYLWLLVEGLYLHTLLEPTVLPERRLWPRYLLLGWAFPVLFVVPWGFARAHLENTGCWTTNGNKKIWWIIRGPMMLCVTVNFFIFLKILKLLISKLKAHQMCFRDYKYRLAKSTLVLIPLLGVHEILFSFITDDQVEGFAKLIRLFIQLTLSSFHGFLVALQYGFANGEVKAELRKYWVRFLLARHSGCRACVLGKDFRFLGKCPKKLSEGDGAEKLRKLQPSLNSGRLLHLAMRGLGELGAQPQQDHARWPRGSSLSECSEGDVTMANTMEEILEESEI
Kind of data set: cAMP accumulation assay, functional agonism of human GLP2 receptor. The format is cell-based. Conditions: HEK cells infected with human GLP2 receptor BacMam virus, HTRF cAMP; for Emax: HEK293, read-out: Human GLP-2R agonist cAMP Emax; for EC50: read-out: Human GLP-2R agonist cAMP pEC50 (converted). The method in brief: as §1
In general terms: cAMP levels reflect the balance of adenylyl cyclase and phosphodiesterase activity.

A further data set has as its target T3, mouse GLP2 receptor (Mus musculus, UniProt Q5IXF8).
T3 construct: expressed in transfected cells; host or cells: HEK cells, transient transfection with GeneJuice
T3 sequence (Q5IXF8 1-512): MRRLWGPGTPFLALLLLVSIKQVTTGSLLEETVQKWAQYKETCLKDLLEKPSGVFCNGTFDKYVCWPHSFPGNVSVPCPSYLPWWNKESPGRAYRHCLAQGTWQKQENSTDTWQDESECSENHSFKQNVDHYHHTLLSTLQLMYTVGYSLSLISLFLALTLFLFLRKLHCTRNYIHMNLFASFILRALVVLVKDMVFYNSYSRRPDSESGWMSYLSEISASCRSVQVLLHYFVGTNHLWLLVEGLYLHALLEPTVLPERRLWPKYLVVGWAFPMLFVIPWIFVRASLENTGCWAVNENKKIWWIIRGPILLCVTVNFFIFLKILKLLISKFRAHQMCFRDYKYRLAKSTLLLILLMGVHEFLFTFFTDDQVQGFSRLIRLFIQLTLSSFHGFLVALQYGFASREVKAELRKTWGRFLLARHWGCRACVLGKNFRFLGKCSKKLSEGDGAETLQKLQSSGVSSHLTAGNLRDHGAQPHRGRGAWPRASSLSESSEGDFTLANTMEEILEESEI
The experiment in a line: cAMP accumulation assay, functional agonism of mouse GLP2 receptor. It is filed as cell-based. Conditions: HEK cells transiently transfected with mouse GLP2 receptor, HTRF cAMP; for Emax: HEK293, read-out: Mouse GLP-2R agonist cAMP Emax; for EC50: read-out: Mouse GLP-2R agonist cAMP pEC50 (converted). In short, it runs like this:
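pEC50 values come from four-parameter fits of HTRF cAMP signal, read after lysis and 1 h RT incubation. Compounds were incubated 45 min at 37 °C with previously frozen, transiently transfected HEK cells (8000/well) in HBSS containing 0.5 mM IBMX.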

Each structure is given as a SMILES string. Positions of bridges follow the written chain, without caps; N, C: chain ends. Non-standard residues stand in square brackets, D forms with d. Residues, ends and D or L forms follow the SMILES beside them. *: point of attachment. Malonyl(2,2-Me2,histaminyl) = CC(C)(C(=O)NCCc1cnc[nH]1)C(=O)*; Ala(1H-tetrazol-5-yl) = N[C@@H](Cc1nnn[nH]1)C(=O)O; αMePhe(2-F) = C[C@](N)(Cc1ccccc1F)C(=O)O; Nle = CCCC[C@H](N)C(=O)O; Aib = CC(C)(N)C(=O)O

T1 sequence (P43220 24-463): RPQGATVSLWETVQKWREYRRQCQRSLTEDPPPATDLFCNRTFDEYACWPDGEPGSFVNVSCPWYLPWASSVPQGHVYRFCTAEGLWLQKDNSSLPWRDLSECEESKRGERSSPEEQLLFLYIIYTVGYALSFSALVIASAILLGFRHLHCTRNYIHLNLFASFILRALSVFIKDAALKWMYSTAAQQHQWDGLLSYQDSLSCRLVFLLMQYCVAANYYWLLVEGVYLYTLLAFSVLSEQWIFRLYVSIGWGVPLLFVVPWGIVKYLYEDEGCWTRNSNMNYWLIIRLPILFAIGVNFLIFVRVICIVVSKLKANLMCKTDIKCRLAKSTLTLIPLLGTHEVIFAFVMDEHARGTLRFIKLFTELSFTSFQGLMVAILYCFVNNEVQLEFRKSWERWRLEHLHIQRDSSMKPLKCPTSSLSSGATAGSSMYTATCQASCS

Take `CCCC[C@@H]1NC(=O)[C@H](CCC(=O)O)NC(=O)[C@H](CC(=O)O)NC(=O)[C@@H](NC(=O)[C@H](Cc2ccccc2)NC(=O)[C@H](CO)NC(=O)CNC(=O)[C@H](CC(=O)O)NC(=O)C(C)(C)NC(=O)[C@@H](N)Cc2c[nH]cn2)CCC(=O)NCCCC[C@@H](C(=O)N[C@H](C(=O)N[C@H](C(=O)N[C@@H](CC(C)C)C(=O)N[C@@H](CC(=O)O)C(=O)N[C@@H](CC(C)C)C(=O)N[C@@H](CCCCN)C(=O)N[C@@H](C)C(=O)N[C@@H](C)C(=O)N[C@@H](CCCCN)C(=O)N[C@@H](CC(=O)O)C(=O)N[C@@H](Cc2ccccc2)C(=O)N[C@H](C(=O)N[C@@H](CC(N)=O)C(=O)N[C@@H](Cc2c[nH]c3ccccc23)C(=O)N[C@@H](CC(C)C)C(=O)N[C@H](C(=O)N[C@@H](CCC(N)=O)C(=O)N[C@H](C(=O)N[C@H]2CCC(=O)NCCCC[C@@H](C(N)=O)NC(=O)[C@H]([C@@H](C)O)NC(=O)[C@H]([C@@H](C)CC)NC2=O)[C@@H](C)O)[C@@H](C)CC)[C@@H](C)CC)[C@@H](C)CC)[C@@H](C)O)NC1=O` [Example 111] (H-H[Aib]DGSFEDE[Nle]KTILDLKAAKDFINWLIQTEITK-NH2; lactam 7-11, 30-33 (inferred); C-terminus assumed): on human GLP1 receptor, the Emax is 93.2% and the EC50 was 0.794 nM. Besides, the amount remaining at 0.25 h in data set [1] is 26.9%. In addition, at human GLP2 receptor, the Emax stood at 104% and the EC50 is 0.631 nM.

For `CCCC[C@H](NC(=O)[C@H](CCC(=O)O)NC(=O)[C@H](CC(=O)O)NC(=O)[C@H](CO)NC(=O)[C@H](Cc1ccccc1)NC(=O)[C@H](CO)NC(=O)CNC(=O)[C@H](Cc1nn[nH]n1)NC(=O)C(C)(C)C(=O)NCCc1c[nH]cn1)C(=O)N[C@H](Cc1ccccc1)C(=O)N[C@H](C(=O)N[C@H](C(=O)N[C@@H](CC(C)C)C(=O)N[C@@H](CC(=O)O)C(=O)N[C@H]1CC(=O)NCCCC[C@@H](C(=O)N[C@@H](CC(=O)O)C(=O)N[C@@H](Cc2ccccc2)C(=O)N[C@H](C(=O)N[C@@H](CC(N)=O)C(=O)N[C@@H](Cc2c[nH]c3ccccc23)C(=O)N[C@@H](CC(C)C)C(=O)N[C@H](C(=O)N[C@@H](CCC(N)=O)C(=O)N[C@H](C(=O)N[C@H]2CCC(=O)NCCCC[C@@H](C(N)=O)NC(=O)[C@H]([C@@H](C)O)NC(=O)[C@H]([C@@H](C)CC)NC2=O)[C@@H](C)O)[C@@H](C)CC)[C@@H](C)CC)NC(=O)[C@H](C)NC(=O)[C@H](C)NC(=O)[C@H](CCCCN)NC1=O)[C@@H](C)CC)[C@@H](C)O` [Example 106] ({Malonyl(2,2-Me2,histaminyl)}-[Ala(1H-tetrazol-5-yl)]GSFSDE[Nle][dF]TILDDKAAKDFINWLIQTEITK-NH2; lactam 14-18, 28-31; C-terminus assumed), the Emax on human GLP1 receptor was 97.2%; on human GLP2 receptor, 102%. Further, the values for the EC50 on human GLP1 receptor and at human GLP2 receptor were 0.316 nM and 0.501 nM, respectively. Besides, the amount remaining at 0.25 h in data set [1] is 9.6%.

As for `CCCC[C@@H]1NC(=O)[C@H](CCC(=O)O)NC(=O)[C@@H](NC(=O)[C@H](CO)NC(=O)[C@](C)(Cc2ccccc2F)NC(=O)[C@H](CO)NC(=O)[C@@H](C)NC(=O)[C@H](CC(=O)O)NC(=O)C(C)(C)C(=O)NCCc2c[nH]cn2)CCCCNC(=O)C[C@@H](C(=O)N[C@H](C(=O)N[C@@H](CC(C)C)C(=O)N[C@@H](CC(=O)O)C(=O)N[C@H]2CCC(=O)NCCCC[C@@H](C(=O)N[C@@H](CC(=O)O)C(=O)N[C@@H](Cc3ccccc3)C(=O)N[C@H](C(=O)N[C@@H](CC(N)=O)C(=O)N[C@@H](Cc3c[nH]c4ccccc34)C(=O)N[C@@H](CC(C)C)C(=O)N[C@H](C(=O)N[C@@H](CCC(N)=O)C(=O)N[C@H]3CCC(=O)NCCCC[C@@H](C(N)=O)NC(=O)[C@H]([C@@H](C)O)NC(=O)[C@H]([C@@H](C)CC)NC(=O)[C@H](CCCCN)NC3=O)[C@@H](C)CC)[C@@H](C)CC)NC(=O)[C@H](C)NC(=O)[C@H](C)NC(=O)[C@H](CCCCN)NC2=O)[C@@H](C)CC)NC(=O)[C@@H](Cc2ccccc2)NC1=O` [Example 26] ({Malonyl(2,2-Me2,histaminyl)}-D[dA]S[αMePhe(2-F)]SKE[Nle][dF]DILDEKAAKDFINWLIQEKITK-NH2; lactam 6-10, 14-18, 27-31 (inferred); C-terminus assumed), the Emax was determined as 97.1% at human GLP1 receptor, 86.4% at mouse GLP2 receptor and 103% on human GLP2 receptor. In addition, the EC50 at human GLP1 receptor is 0.158 nM; on mouse GLP2 receptor it was 3.16 nM; on human GLP2 receptor, 0.0158 nM.

`CCCC[C@H](NC(=O)[C@H](CCC(=O)O)NC(=O)[C@@H]1CCCCNC(=O)CC[C@H](NC(=O)[C@H](Cc2nn[nH]n2)NC(=O)C(C)(C)C(=O)NCCc2c[nH]cn2)C(=O)N[C@@H](CO)C(=O)N[C@@H](Cc2ccccc2)C(=O)N[C@@H](CO)C(=O)N1)C(=O)N[C@H](Cc1ccccc1)C(=O)N[C@H]1CCC(=O)NCCCC[C@@H](C(=O)N[C@H]2CCCCNC(=O)C[C@@H](C(=O)N[C@@H](Cc3ccccc3)C(=O)N[C@H](C(=O)N[C@H]3CCC(=O)NCCCC[C@@H](C(=O)N[C@H]4CCCCNC(=O)CC[C@@H](C(N)=O)NC(=O)[C@H]([C@@H](C)O)NC(=O)[C@H]([C@@H](C)CC)NC(=O)[C@H](CCCCN)NC4=O)NC(=O)[C@H]([C@@H](C)CC)NC(=O)[C@H](CC(C)C)NC(=O)[C@H](Cc4c[nH]c5ccccc45)NC3=O)[C@@H](C)CC)NC(=O)[C@H](CCCCN)NC(=O)[C@H](C)NC(=O)[C@H](C)NC2=O)NC(=O)[C@H](CC(=O)O)NC(=O)[C@H](CC(C)C)NC(=O)[C@H]([C@@H](C)CC)NC1=O` [Example 79] ({Malonyl(2,2-Me2,histaminyl)}-[Ala(1H-tetrazol-5-yl)]ESFSKE[Nle][dF]EILDKKAAKDFIEWLIKKKITE-NH2; lactam 2-6, 10-14, 15-19, 22-26, 27-31 (inferred); C-terminus assumed): the results for the Emax at human GLP1 receptor, on mouse GLP2 receptor and on human GLP2 receptor were 97.3%, 74.2% and 103%, respectively. The EC50 is 0.251 nM on human GLP1 receptor, 3.16 nM on mouse GLP2 receptor and 0.0316 nM at human GLP2 receptor.

`CCCC[C@@H]1NC(=O)[C@H](CCC(=O)O)NC(=O)[C@H](CC(=O)O)NC(=O)[C@@H](NC(=O)[C@H](Cc2ccccc2)NC(=O)[C@H](CO)NC(=O)CNC(=O)[C@H](CC(=O)O)NC(=O)C(C)(C)NC(=O)[C@@H](N)Cc2c[nH]cn2)CCC(=O)NCCCC[C@@H](C(=O)N[C@H]2CCC(=O)NCCCC[C@@H](C(=O)N[C@H]3CCCCNC(=O)C[C@@H](C(=O)N[C@@H](Cc4ccccc4)C(=O)N[C@H](C(=O)N[C@H]4CCC(=O)NCCCC[C@@H](C(=O)N[C@H]5CCCCNC(=O)CC[C@@H](C(N)=O)NC(=O)[C@H]([C@@H](C)O)NC(=O)[C@H]([C@@H](C)CC)NC(=O)[C@H](CCCCN)NC5=O)NC(=O)[C@H]([C@@H](C)CC)NC(=O)[C@H](CC(C)C)NC(=O)[C@H](Cc5c[nH]c6ccccc56)NC4=O)[C@@H](C)CC)NC(=O)[C@H](CCCCN)NC(=O)[C@H](C)NC(=O)[C@H](C)NC3=O)NC(=O)[C@H](CC(=O)O)NC(=O)[C@H](CC(C)C)NC(=O)[C@H]([C@@H](C)CC)NC2=O)NC1=O` [Example 77] (H-H[Aib]DGSFEDE[Nle]KEILDKKAAKDFIEWLIKKKITE-NH2; lactam 7-11, 12-16, 17-21, 24-28, 29-33; N-terminus and C-terminus assumed): the Emax was determined as 97.1% on human GLP1 receptor, 102% at mouse GLP2 receptor and 102% at human GLP2 receptor. Besides, the EC50 is 0.501 nM on human GLP1 receptor, 3.16 nM on mouse GLP2 receptor and 0.0631 nM on human GLP2 receptor.
